Measured values: patent US10704076B2, “Multi-tiered high through-put screen for compounds effective against bacterial biofilm and compounds effective for inhibiting and eradicating bacterial biofilm” (University of Cincinnati, priority 2013, dated 2020)
Values after ≈ are worked out from the molar mass of the structure shown.

How the values were obtained:
A. baumannii [1] = experiment: HTS total bacterial growth assay (optical density OD560); format: cell-based, Acinetobacter baumannii; details: for AC50: Acinetobacter baumannii, 10 point dose-response 0.1-50 μM, NS* = no sigmoid curve observed, read-out: Total Bacteria Growth AC50
From the text: Each HTS tier consisted of: (i) primary screening, (ii) confirmation screening and (iii) dose-response curve screening. Each tier of HTS included three distinct biological process assays. The first assay was an optical density measurement of bacteria growth in the presence of each compound reported as a total bacteria growth. In the second assay, resazurin solution was used as an indicator of metabolic activity to measure the live bacteria in the biofilms, reported as live biofilm. The final assay was crystal violet staining, which indicated the amount of biofilm formation and the effect of each compound on this process, reported as total biofilm formation.
Briefly, stationary phase bacteria grown in L-broth were diluted 1:200 into fresh L-broth and 50 μM of each test compound. After 20-24 hours, the optical density (OD560) of each suspension was measured using Zeiss Plate::Vision with a 560 BP filter (560 nm, 2.5% light intensity, 1 mm focus to bottom of plate, and exposure time of 100 ms). To measure bacterial viability in the biofilm, 50 μl of a 5 mg/ml resazurin solution in L-broth was added to each well after washing 3 times with 50 μl of PBS. The plates were then incubated at 37° C. for 30 or 180 min for A. baumannii and P. aeruginosa biofilms, respectively. Fluorescence was measured using Zeiss Plate::Vision at excitation and emission wavelengths of 535 and 580 nm, 100 ms exposure time, 2.5% intensity and a 2 mm focus to the bottom of the biofilms. To assess biofilm formation, plates were washed 3 times with PBS and then 50 μl of 0.01% of crystal violet was added to each well to assess bacterial biofilm formation as described in a similar borosilicate tube assay by O'Toole and Kolter. After incubation at room temperature for 30 min and removal of the crystal violet solution by washing with PBS, 95% ethanol was added to solubilize the crystal violet followed by incubation for 20 min at room temperature. Finally, the optical density of each plate was determined using measured by Zeiss Plate::Vision using the same settings used to measure total bacterial growth. These 3 steps were used in each of the three tiers for the HTS process: (i) single point primary screening at 10 μM, (ii) triplicate confirmation of hits from (i) at 10 μM and (iii) determination of AC50 values in 10 point dose-response at a concentration range of 0.1-50 μM) in hits from (ii). The AC50 represents the concentration of compound that inhibits 50% of bacterial growth, bacterial viability, or biofilm formation. Genedata Screener® Assay Analyzer Software (Ver. 9.0.0 Standard) was used to analyze data from all assay tiers. Compounds with an AC50 of less than 20 μM in one of the biological assays from the dose response screen were subject to additional investigation.

A. baumannii [2] = experiment: MIC determination (CLSI, Mueller Hinton broth), planktonic cultures; format: cell-based, Acinetobacter baumannii; details: MH, Aerobic; for MIC: Acinetobacter baumannii, read-out: Minimum Inhibition Concentration
Procedure: A standard protocol for determining the MIC of a specific compound as outlined by the Clinical and Laboratory Standards Institute (CLSI) was used, based on growth of the selected bacteria in Mueller Hinton (MH) broth with subsequent 2-fold dilutions of compounds of interest. Following the CLSI protocols, the MIC of each broad spectrum “hit” compound was performed in all 3 bacterial species in both aerobic and anaerobic conditions. All bacteria were grown in MH broth for 18 hrs at 37° C. The cells were then diluted 100-fold into MH broth containing compounds at concentrations ranging from 0.40-50 μM in the presence of either KNO3 or glucose to allow bacterial growth under anaerobic condition. After 24 hrs of incubation, cell growth was measured at OD600 using a SpectraMax 190 Absorbance Microplate Reader.
The HTS and CLSM assays identified and confirmed compounds that can inhibit biofilms formation in aerobic growth conditions. However, P. aeruginosa and S. epidermidis are capable of growth under anaerobic as well as aerobic conditions. […] The Minimal Inhibitory Concentrations (MIC) of the four broad agent hit compounds under both aerobic and anaerobic conditions of planktonic P. aeruginosa and S. epidermidis cultures were determined to evaluate compound efficacy in different growth conditions. The MICs for A. baumannii were determined only in aerobic conditions. To examine growth in aerobic conditions, bacteria were grown in either Mueller Hinton (MH) media only, MH media in the presence of 1% KNO3, or MH in the presence of 1% glucose. For MIC determinations under anaerobic conditions, growth was examined in MH media with 1% KNO3 or with 1% glucose.

| MIC (A. baumannii [2]) [µM] | SMILES | AC50 (A. baumannii [1]) [µM] | Minimum Inhibition Concentration (A. baumannii [2]) [µM] | HTS assay results: Total Bacteria growth (A. baumannii [1]; Y / —) |
| --- | --- | --- | --- | --- |
| 5 to 6 (≈ 1.71 to 2.05 µg/mL) | O=C(O)c1cn(C2CC2)c2c(F)c(-c3ccncc3)c(F)cc2c1=O [Compound 11, 7-(4-pyridyl)-1-cyclopropyl-6,8-difluoro-4-oxoquinoline-3-carboxylic acid] | 0.66 | 5.12 ± 1.04 |  |
| 5 to 6 (≈ 0.873 to 1.05 µg/mL) | Cn1sc(Cl)c(C#N)c1=O [Compound 3, 5-chloro-2-methyl-3-oxo-1,2-thiazole-4-carbonitrile] | 2.93 | 6.25 ± 2.21 |  |
| ~1 (≈ 0.336 µg/mL) | O=C(O)c1cn(C2CC2)c2c(F)c(N3CC(O)C3)c(F)cc2c1=O [Compound 8, 1-cyclopropyl-6,8-difluoro-7-(3-hydroxyazetidin-1-yl)-4-oxoquinoline-3-carboxylic acid] | 3.44 |  | —* (AC50 higher than 20 μM) |
| 16 (≈ 6.25 µg/mL) | NC(=S)N1CCN(c2cc3c(cc2F)c(=O)c(C(=O)O)cn3C2CC2)CC1 [Compound 7, 7-(4-carbamothioylpiperazin-1-yl)-1-cyclopropyl-6-fluoro-4-oxoquinoline-3-carboxylic acid] | 12.1 | 16.67 ± 4.17 |  |
